The values below come from patent US20250387462A1, “LIPID NANOPARTICLES FOR […] OF NUCLEIC ACIDS AND VACCINE FOR THE PREVENTION OF TU[…] OTHER MYCOBACTERIAL INFECTIONS” (priority 2024, published 2025).

Series [1] can be described thus: Apparent solubility of phosphatidylserine salts in ethanol (shake flask). Format: physicochemical. The conditions noted are these: 21 °C, organic solvent or mixture, thermodynamic from solid, 100% ethanol, room temperature, average±SD (N=3). The protocol: Apparent solubilities of phosphatidylserine salts in ethanol were determined by shake flask technique. Sodium and ammonium salts of phosphatidylserines in the powder form were obtained from Avanti Polar Lipids (Alabama, USA). Aliquots of phosphatidylserine salt powder were placed in 12×75 borosilicate glass tubes in triplicate. Three mL of 200 proof ethanol (catalog number E-7023, MilliporeSigma, USA) were added, the tubes were closed with polyethylene snap caps, agitated using vortex mixer for 10-15 s to obtain uniform suspensions, and placed in a horizontal position on a rocking platform at room temperature (20-22° C.) overnight. The ambient temperature at the end of incubation was 20.4-20.9° C. After 24 hours incubation, the suspensions were visually checked for the presence of a solid phase, allowed to settle under gravity, and the supernatant solutions were passed through a 0.2-μm PTFE syringe membrane filters. The first 0.5 ml of the filtrate was discarded, the next 1 ml was collected, and phosphatidylserine in the filtrates was quantified by phospholipid phosphate assay as follows: 20 μL aliquots of the filtrate were taken in triplicate into glass tubes, ethanol was evaporated in a stream of argon at 70° C., and the residue was digested in a mixture of 60 μL concentrated sulfuric acid and 20 μL 30% hydrogen peroxide for 10 min at 180-190° C. The digested samples were diluted with 1 mL of deionized water, 20 μL of 10% sodium sulfite was added to destroy any residual peroxide, and the samples were incubated on a boiling water bath for 15 min to hydrolyze any condensed phosphate species. The samples were chilled down to room temperature, mixed with 0.2 mL of 2% (w/w) ammonium molybdate solution and 20 μL of 10% (w/w) ascorbic acid solution, incubated on a boiling water bath for 10 min, and chilled down in a water bath at room temperature. The phosphate concentration was determined from the optical density of the formed blue phosphomolybdic acid at 825 nm using five-point standard curve from concurrently run standards prepared from the NIST-traceable commercial phosphate standard solution diluted to cover the range of 0-2 mM phosphate (coefficient of determination R^2>0.9999). Solubility of phosphatidylserine salts was expressed in molarity units of phosphatidylserine (Table 28). The data are average±SD (N=3).

In series [2] the test system is MutuDC1940 cells. In words: mCherry mRNA transfection efficiency of LNPs in murine dendritic cells (flow cytometry). Format: cell-based. The note with it: lipid in LNPs, even in the presence of DPPS targeting lipid. On the procedure: • 1. MutuDC1940 cells (Applied Biological Materials, T0528) were grown according to supplier's instructions in T75 flasks. They were plated at 180,000 cells/well into 24-well plate one day prior to transfection. • 2. LNPs were added in triplicate to each well at the desired mRNA concentration (e.g. 1 μg/mL) in 1 mL media and after 24 h the cells were washed once with DPBS (VWR 02-0119-1000). • 3. 0.2 mL of DPBS (plus 5 mM EDTA, pH 7.4) was then added to facilitate detachment. • 4. The cells were placed at 37° C. for 3 min, until detached. • 5. 0.5 ml DPBS added to each well and the liquid transferred to a flow cytometry tube (Falcon 5 mL #352054). • 6. The tube was centrifuged at 1100 rpm for 3-5 min and the liquid poured off. • 7. 100 μL of Zombie Violet (Biolegend) (diluted 1:500 in PBS) was added to each tube. • 8. The tubes were gently tapped to resuspend cells and placed in the dark for 15 min at RT. • 9. […]
Cells suspensions were analyzed by an Attune NXT flow cytometer using the VL1 and YL2 for live/dead and mCherry fluorescence signals respectively. […]
The aim of this study was to explore the effect of different KC2 and KC3 ICLs on transfection efficiency in murine dendritic cells. […] Two other variants evaluated have monounsaturated alkyl chains with KC3-OA being 18 carbons in length and KC3C17(8:1) having 17 carbons. […]
For orientation: In flow cytometry, cells or beads pass a laser one at a time.

The nature of series [3]: In vivo metabolism of ionizable lipid after intramuscular injection. The source says:
We have observed that in vivo metabolism of the KC3-OA lipids after intramuscular injection is slow. This is not unexpected because there are no ester linkages in the lipid tail that would allow for the release of the lipid head group and subsequent clearance from the body. We have identified multiple biodegradable ICLs that differ in the length of the lipid tail, the location and orientation of the ester linkage, and the inclusion of a double bond in the lipid tail.

The subject of series [4] is Mtb-specific CD4 and CD8 T cells. In words: Mtb antigen-specific splenic CD4 and CD8 T cell responses after mRNA-LNP vaccination of CB6F1 or B6C3F1 mice (peptide pool stimulation, intracellular cytokines). Format: in vivo. The conditions noted are these: 1 ug or 0.2 ug i.m., boost 5 weeks, 8 days later, lipid in DPPS-targeted LNP.

As for `CCCCCCCCCCCCCCCC(=O)OC[C@H](COP(=O)(O)OC[C@H](N)C(=O)O)OC(=O)CCCCCCCCCCCCCCC.N` [DPPS ammonium], the solubility (in general, the concentration that dissolves in the medium under given conditions) at 24 h in series [1] is 0.865 ± 0.06 mM. For the compound `CCCCCCCCCCCCCCCCCC1(CCCCCCCCCCCCCCCCC)OC[C@H](CCCN(C)C)O1` [KC3-17, (S)-3-(2,2-diheptadecyl-1,3-dioxolan-4-yl)-N,N-dimethylpropan-1-amine], the “transfection activity in murine dendritic cells (in words)” value in series [2] was “completely inactive”. As to `CCCCCCCC/C=C\CCCCCCCCC1(CCCCCCCC/C=C\CCCCCCCC)OC[C@H](CCCN(C)C)O1` [KC3-OA, 3-((S)-2,2-di((Z)-octadec-9-en-1-yl)-1,3-dioxolan-4-yl)-N,N-dimethylpropan-1-amine], in series [3], the “in vivo metabolism after intramuscular injection” value is given as “slow”. With `CCCCCCCCCCCCCCCCCC(=O)OC[C@H](COP(=O)(O)OC[C@H](N)C(=O)O)OC(=O)CCCCCCCCCCCCCCCCC.N` [DSPS ammonium], the solubility at 24 h in series [1] worked out at 0.034 ± 0.004 mM. Same read-out and setting: the same measure for `CCCCCCCCCCCCCCCC(=O)OC[C@H](COP(=O)(O)OC[C@H](N)C(=O)[O-])OC(=O)CCCCCCCCCCCCCCC.[Na+]` [DPPS sodium]: 0.201 ± 0.004 mM; for `CCCCCCCCCCCCCCCCCC(=O)OC[C@H](COP(=O)(O)OC[C@H](N)C(=O)[O-])OC(=O)CCCCCCCCCCCCCCCCC.[Na+]` [DSPS sodium]: 0.111 ± 0.009 mM.

With `CC(C)CCCC(C)CCCC(C)CCOC(=O)CCCCCCCC1(CCCCCCCC(=O)OCCC(C)CCCC(C)CCCC(C)C)OCC(CCCN(C)C)O1` (stereo not shown) [KC3-X1-PH5], in series [4], the “CD4 and CD8 T cell magnitude compared to KC3-OA” value is “statistically performed better than KC3-OA”.
